Assay results: ChEMBL document CHEMBL3611997, “4-Fluoro-3',4',5'-trimethoxychalcone as a new anti-invasive agent. From discovery to initial validation in an in vivo metastasis model” (Eur J Med Chem, 2015)
Active and inactive are the calls of the source. No cut-off for these calls is given here.

How the values were obtained:
[1] = Protein binding in human plasma assessed as recovery at 10 umol/L; assay type: ADME, cell-free; details: read-out: Drug recovery
Mus musculus [2] = experiment: Toxicity in Swiss nu/nu mouse assessed as hematological anomalies by measuring WBC count at 1.6 mg/kg, ip administered three times a week for two-week period measured on day 15 (reference value: 2420 +/- 782 /microL); assay type: organism-based; details: in vivo
CYP1A2 = target: T1, CYP1A2 (Homo sapiens, UniProt P05177); experiment: Inhibition of CYP1A2 (unknown origin) at 10 umol/L; assay type: ADME
T1 sequence (P05177 whole entry): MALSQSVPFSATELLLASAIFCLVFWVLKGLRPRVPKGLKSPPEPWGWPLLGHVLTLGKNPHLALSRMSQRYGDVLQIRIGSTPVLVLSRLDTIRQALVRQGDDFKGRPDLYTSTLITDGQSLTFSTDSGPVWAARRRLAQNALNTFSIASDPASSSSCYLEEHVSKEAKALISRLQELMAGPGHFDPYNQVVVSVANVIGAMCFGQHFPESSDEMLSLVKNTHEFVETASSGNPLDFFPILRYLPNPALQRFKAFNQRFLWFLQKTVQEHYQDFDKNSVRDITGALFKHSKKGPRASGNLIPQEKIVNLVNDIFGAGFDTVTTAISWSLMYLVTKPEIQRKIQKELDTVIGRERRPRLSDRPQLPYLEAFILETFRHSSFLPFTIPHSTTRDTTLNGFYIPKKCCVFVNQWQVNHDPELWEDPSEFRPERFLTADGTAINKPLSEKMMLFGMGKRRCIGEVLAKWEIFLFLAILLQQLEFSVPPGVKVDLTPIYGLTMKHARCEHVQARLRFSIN

MCF7/6 = experiment: Inhibition of cell migration in human MCF7/6 cells at 0.01 to 10 umol/L after 24 hrs by wound scratch assay; assay type: functional, cell-based
[3] = Cytotoxicity against human MCF7/6 cells assessed as reduction of mitochondrial activity at 0.01 to 100 umol/L after 6 days by MTT assay; assay type: cell-based; details: mcf7/6, 144 h
[4] = Protein binding in human plasma at 10 umol/L; assay type: ADME, cell-free; details: read-out: PPB (converted)
[5] = target: Vascular endothelial growth factor receptor 2 (Homo sapiens) (UniProt P35968); experiment: Inhibition of human KDR using and Ulight-CAGAGAIETDKEYYTVKD as substrate at 0.1 umol/L after 1 hr by FRET assay
MDA-MB-231 [6] = experiment: Cytotoxicity against human MDA-MB-231 cells expressing GFP assessed as reduction of mitochondrial activity at 0.01 to 100 umol/L after 6 days by MTT assay; assay type: cell-based; details: mda-mb-231, 144 h
Mus musculus [7] = experiment: Toxicity in Swiss nu/nu mouse assessed as hematological anomalies by measuring AST level at 16 mg/kg, ip administered three times a week for two-week period measured on day 15 (reference value: 254.2 +/- 144.6 IU/L); assay type: organism-based; details: in vivo
Mus musculus [8] = experiment: Toxicity in Swiss nu/nu mouse assessed as macroscopic anomalies at 1.6 to 160 mg/kg, ip administered three times a week for two-week period measured on day 15; assay type: organism-based; details: in vivo
[9] = Toxicity in human HepG2 cells assessed as cell viability at 0.1 umol/L; assay type: cell-based; details: read-out: Activity
Homo sapiens = species on record: Homo sapiens; experiment: Displacement of [3H]-quinuclydinyl benzylate from muscarinic receptor (unknown origin) at 10 umol/L
hERG = hERG (Homo sapiens, UniProt Q12809); experiment: Inhibition of human ERG assessed as reduction of tail current at 1 umol/L
[10] = Permeability across basolateral to apical side of human Caco2 cells at 10 umol/L at pH 7.4; assay type: ADME, cell-based; details: Caco-2, pH 7.4, read-out: permeability
[11] = Antiinvasive activity in human in BLM cells assessed as reduction of amount of cells present on filter at 100 umol/L after 24 hrs by matrigel invasion assay (reference value: 100%); assay type: functional; parameters: scale not given: the % may be the effect or the level left
[12] = Cytotoxicity against human BLM cells assessed as reduction of mitochondrial activity at > 10 umol/L after 24 hrs by MTT assay; assay type: cell-based
Mus musculus [13] = experiment: Toxicity in Swiss nu/nu mouse assessed as hematological anomalies by measuring creatinine level at 16 mg/kg, ip administered three times a week for two-week period measured on day 15 (reference value: 0.29 +/- 0.02 mg/dL); assay type: organism-based; details: in vivo
MCF10 = experiment: Cytotoxicity against human MCF10 cells assessed as reduction of mitochondrial activity at 0.01 to 100 umol/L after 6 days by MTT assay; assay type: cell-based; details: mcf10, 144 h
Mus musculus [14] = experiment: Toxicity in Swiss nu/nu mouse assessed as hematological anomalies by measuring creatinine level at 160 mg/kg, ip administered three times a week for two-week period measured on day 15 (reference value: 0.29 +/- 0.02 mg/dL); assay type: organism-based; details: in vivo
MDA-MB-231 [15] = experiment: Cytotoxicity against human MDA-MB-231 cells expressing GFP-Luc assessed as reduction of mitochondrial activity at 0.01 to 100 umol/L after 6 days by MTT assay; assay type: cell-based; details: mda-mb-231, 144 h
[16] = Toxicity in human HepG2 cells assessed as cell viability; assay type: cell-based; details: HepG2 cells
Tubulin (Sus scrofa) = Tubulin (Sus scrofa) (UniProt P02554+P02550); experiment: Inhibition of porcine brain tubulin polymerization assessed as microtubule assembly at 1 umol/L after 15 mins by DAPI staining
Mus musculus [17] = experiment: Toxicity in Swiss nu/nu mouse assessed as hematological anomalies by measuring ALT level at 1.6 mg/kg, ip administered three times a week for two-week period measured on day 15 (reference value: 29.6 +/- 5.6 IU/L); assay type: organism-based; details: in vivo
CYP2D6 = CYP2D6 (Homo sapiens, UniProt P10635); experiment: Inhibition of CYP2D6 (unknown origin) at 10 umol/L; assay type: ADME
[18] = Antiinvasive activity in human in BLM cells assessed as reduction of amount of cells present on filter at 1 umol/L after 24 hrs by matrigel invasion assay (reference value: 100%); assay type: functional; parameters: scale not given: the % may be the effect or the level left
[19] = Half life of the compound in PBS at pH 7.4 at 1 umol/L; assay type: ADME
MDA-MB-231 [20] = experiment: Cytotoxicity against human MDA-MB-231 cells expressing GFP assessed as reduction of cellular protein content at 0.01 to 100 umol/L after 6 days by SRB assay; assay type: cell-based; details: mda-mb-231, 144 h
[21] = Octanol-phosphate buffer partition coefficient, log D of the compound at 100 umol/L at pH 7.4; assay type: physicochemical
Mus musculus [22] = experiment: Toxicity in Swiss nu/nu mouse assessed as hematological anomalies by measuring AST level at 160 mg/kg, ip administered three times a week for two-week period measured on day 15 (reference value: 254.2 +/- 144.6 IU/L); assay type: organism-based; details: in vivo

Chain of Tubulin (Sus scrofa) (P02550 whole entry, looked up): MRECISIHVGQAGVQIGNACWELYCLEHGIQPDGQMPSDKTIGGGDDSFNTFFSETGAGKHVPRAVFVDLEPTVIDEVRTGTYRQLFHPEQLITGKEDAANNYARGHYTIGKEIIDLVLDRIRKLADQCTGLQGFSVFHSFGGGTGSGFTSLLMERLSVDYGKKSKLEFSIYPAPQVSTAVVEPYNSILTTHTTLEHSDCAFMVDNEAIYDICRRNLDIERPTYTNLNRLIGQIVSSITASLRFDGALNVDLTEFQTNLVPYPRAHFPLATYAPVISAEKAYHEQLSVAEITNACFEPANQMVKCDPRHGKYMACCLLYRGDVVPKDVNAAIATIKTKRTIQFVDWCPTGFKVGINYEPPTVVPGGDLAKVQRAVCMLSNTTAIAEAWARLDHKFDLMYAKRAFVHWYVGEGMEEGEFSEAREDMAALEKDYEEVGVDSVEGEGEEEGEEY
Chain of Tubulin (Sus scrofa) (P02554 whole entry, looked up): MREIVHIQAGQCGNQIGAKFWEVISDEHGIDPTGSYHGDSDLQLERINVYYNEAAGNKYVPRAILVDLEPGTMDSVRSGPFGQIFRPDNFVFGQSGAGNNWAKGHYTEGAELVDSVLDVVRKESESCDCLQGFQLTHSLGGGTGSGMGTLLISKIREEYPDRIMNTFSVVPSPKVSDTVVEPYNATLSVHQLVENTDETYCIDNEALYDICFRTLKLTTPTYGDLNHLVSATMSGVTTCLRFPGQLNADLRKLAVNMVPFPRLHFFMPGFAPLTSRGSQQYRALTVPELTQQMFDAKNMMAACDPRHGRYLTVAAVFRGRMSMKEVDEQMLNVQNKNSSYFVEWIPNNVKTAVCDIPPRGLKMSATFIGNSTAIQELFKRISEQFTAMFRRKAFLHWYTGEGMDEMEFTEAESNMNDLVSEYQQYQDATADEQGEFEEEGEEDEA
Chain of Vascular endothelial growth factor receptor 2 (Homo sapiens) (P35968 whole entry): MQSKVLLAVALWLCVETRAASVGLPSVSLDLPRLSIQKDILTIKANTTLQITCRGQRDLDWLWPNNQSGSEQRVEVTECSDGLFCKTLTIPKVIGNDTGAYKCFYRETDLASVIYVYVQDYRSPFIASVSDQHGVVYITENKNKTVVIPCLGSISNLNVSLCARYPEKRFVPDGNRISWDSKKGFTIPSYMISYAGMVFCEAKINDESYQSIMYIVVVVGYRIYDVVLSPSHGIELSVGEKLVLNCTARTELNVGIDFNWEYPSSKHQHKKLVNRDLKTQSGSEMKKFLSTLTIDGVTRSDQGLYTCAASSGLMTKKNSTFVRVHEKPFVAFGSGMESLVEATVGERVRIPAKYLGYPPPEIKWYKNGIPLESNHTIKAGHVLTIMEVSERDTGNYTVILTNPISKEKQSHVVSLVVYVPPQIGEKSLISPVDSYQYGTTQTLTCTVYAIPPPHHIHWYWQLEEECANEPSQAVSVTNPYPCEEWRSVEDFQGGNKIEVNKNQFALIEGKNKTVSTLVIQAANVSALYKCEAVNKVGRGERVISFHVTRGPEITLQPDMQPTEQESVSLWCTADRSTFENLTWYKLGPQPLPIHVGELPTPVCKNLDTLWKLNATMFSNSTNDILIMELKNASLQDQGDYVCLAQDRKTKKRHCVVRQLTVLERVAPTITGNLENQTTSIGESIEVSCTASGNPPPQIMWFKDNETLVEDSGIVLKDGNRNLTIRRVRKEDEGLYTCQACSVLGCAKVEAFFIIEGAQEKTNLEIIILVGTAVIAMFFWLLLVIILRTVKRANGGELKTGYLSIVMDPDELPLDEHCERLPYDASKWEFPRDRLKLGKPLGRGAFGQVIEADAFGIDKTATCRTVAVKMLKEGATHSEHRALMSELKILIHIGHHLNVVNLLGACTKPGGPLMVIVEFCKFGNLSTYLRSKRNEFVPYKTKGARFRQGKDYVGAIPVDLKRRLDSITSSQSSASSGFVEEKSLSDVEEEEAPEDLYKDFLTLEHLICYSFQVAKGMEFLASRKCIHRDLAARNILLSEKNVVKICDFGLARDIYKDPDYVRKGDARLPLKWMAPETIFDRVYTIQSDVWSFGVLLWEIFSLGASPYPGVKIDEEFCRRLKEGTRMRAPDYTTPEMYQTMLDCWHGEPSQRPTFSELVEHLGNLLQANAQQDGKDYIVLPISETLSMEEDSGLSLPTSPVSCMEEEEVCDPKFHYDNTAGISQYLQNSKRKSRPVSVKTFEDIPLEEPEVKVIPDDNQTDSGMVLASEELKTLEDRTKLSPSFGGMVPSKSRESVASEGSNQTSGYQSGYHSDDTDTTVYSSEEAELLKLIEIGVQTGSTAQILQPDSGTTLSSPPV
Chain of hERG (Q12809 whole entry): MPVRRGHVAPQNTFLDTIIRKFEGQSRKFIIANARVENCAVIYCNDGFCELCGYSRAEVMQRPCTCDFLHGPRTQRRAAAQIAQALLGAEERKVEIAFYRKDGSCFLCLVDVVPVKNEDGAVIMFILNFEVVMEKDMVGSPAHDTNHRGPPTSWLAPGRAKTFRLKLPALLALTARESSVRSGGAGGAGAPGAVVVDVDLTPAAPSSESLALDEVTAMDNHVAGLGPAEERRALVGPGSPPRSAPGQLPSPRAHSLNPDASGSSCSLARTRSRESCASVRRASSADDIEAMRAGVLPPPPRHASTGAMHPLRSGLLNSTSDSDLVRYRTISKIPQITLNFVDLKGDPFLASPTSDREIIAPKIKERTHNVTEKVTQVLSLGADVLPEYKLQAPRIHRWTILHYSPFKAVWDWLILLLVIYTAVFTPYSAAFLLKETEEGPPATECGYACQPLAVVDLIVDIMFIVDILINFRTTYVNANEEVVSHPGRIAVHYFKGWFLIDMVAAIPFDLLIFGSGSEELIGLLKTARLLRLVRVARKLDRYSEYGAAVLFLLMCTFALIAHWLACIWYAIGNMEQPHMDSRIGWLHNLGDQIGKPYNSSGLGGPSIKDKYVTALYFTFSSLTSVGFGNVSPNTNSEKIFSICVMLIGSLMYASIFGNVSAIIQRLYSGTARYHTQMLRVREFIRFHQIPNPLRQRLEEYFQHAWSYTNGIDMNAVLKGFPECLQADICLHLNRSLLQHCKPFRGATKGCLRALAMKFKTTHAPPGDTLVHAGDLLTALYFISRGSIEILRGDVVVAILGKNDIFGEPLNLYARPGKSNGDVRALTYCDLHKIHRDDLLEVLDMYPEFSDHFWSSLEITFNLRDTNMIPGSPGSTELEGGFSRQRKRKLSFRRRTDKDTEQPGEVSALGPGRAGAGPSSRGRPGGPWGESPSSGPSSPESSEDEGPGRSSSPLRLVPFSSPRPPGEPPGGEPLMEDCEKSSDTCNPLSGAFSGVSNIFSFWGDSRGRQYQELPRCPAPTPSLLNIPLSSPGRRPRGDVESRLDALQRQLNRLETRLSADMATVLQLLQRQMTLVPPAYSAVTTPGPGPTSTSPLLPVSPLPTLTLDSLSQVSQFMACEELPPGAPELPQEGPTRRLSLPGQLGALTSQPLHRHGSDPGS
Chain of CYP2D6 (P10635 whole entry): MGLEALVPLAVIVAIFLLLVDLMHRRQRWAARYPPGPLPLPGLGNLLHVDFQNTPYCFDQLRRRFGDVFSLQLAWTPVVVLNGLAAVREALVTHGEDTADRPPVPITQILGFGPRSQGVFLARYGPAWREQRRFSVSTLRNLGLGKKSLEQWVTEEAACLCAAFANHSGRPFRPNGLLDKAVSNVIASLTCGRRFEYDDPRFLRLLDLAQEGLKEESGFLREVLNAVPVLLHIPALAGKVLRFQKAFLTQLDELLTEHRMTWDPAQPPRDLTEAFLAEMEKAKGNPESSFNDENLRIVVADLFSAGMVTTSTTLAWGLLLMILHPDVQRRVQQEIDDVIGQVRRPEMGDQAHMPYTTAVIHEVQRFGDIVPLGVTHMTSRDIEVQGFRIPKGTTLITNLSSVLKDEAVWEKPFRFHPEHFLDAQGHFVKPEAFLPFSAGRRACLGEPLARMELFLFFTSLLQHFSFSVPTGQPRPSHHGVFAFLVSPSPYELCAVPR

Question: Which recovery at 10 µM [1] does the source give for `COc1cc(C(=O)/C=C/c2ccc(F)cc2)cc(OC)c1OC` here?
Answer: 90%

Question: What about the Activity (Mus musculus [2]) of the same molecule?
Answer: 4400 µL⁻¹

Question: What about the inhibition at 10 µM (CYP1A2) of the same molecule?
Answer: 35.7%

Question: And the inhibition (MCF7/6)?
Answer: inactive

Question: What about the Activity [3] of the same molecule?
Answer: Non-toxic

Question: What about the fraction unbound at 10 µM [4] of the same molecule?
Answer: 0.01

Question: And the inhibition [5]?
Answer: -3.5%

Question: What about the Activity (MDA-MB-231 [6]) of the same molecule?
Answer: Non-toxic

Question: What about the Activity (Mus musculus [7]) of the same molecule?
Answer: 167.5 IU/L

Question: What about the Activity (Mus musculus [8]) of the same molecule?
Answer: Non-toxic

Question: What about the viability at 0.1 µM [9] of the same molecule?
Answer: 93.7%

Question: What about the inhibition (Homo sapiens) of the same molecule?
Answer: -5.1%

Question: And the inhibition at 1 µM (hERG)?
Answer: 9.8%

Question: What about the Papp B→A at 10 µM [10] of the same molecule?
Answer: 4.9 ×10⁻⁶ cm/s

Question: And the Activity [11]?
Answer: 2%

Question: What about the Activity [12] of the same molecule?
Answer: Toxic

Question: What about the Activity (Mus musculus [13]) of the same molecule?
Answer: 0.32 mg/dL

Question: And the Activity (MCF10)?
Answer: Non-toxic

Question: And the Activity (Mus musculus [14])?
Answer: 0.28 mg/dL

Question: What about the Activity (MDA-MB-231 [15]) of the same molecule?
Answer: Non-toxic

Question: What about the EC50 [16] of the same molecule?
Answer: 10 µM

Question: What about the inhibition (Tubulin (Sus scrofa)) of the same molecule?
Answer: -0.8%

Question: What about the Activity (Mus musculus [17]) of the same molecule?
Answer: 30.5 IU/L

Question: What about the inhibition at 10 µM (CYP2D6) of the same molecule?
Answer: 18.9%

Question: What about the Activity [18] of the same molecule?
Answer: 33%

Question: What about the half-life at 1 µM [19] of the same molecule?
Answer: > 4 h

Question: And the Activity (MDA-MB-231 [20])?
Answer: Non-toxic

Question: And the logD at 100 µM [21]?
Answer: 3.85

Question: What about the Activity (Mus musculus [22]) of the same molecule?
Answer: 207.8 IU/L
